This is an account of results in patent publication US11419866B2, “Pharmaceutical composition for sustained release delivery of buprenorphine” (Foresee Pharmaceuticals Co., Ltd., priority 2018, dated 2022).

Series [1] in a line: Color stabilization by antioxidant in buprenorphine formulation, visual inspection (Example 3). It counts as physicochemical. As to conditions: overtime under stress condition.
Series [2] is described as follows: Solubility of buprenorphine in BA/OA combination vehicles at room temperature.

Marks after values point to notes of the source that are not given here.

Consider `N[C@@H](CS)C(=O)O` [Cys, cysteine], for which the “capacity of color mitigation in buprenorphine formulation” value (“capacity of color mitigation” for short) in series [1] is “milder color stabilizing effect”.
Same read-out and setting: then `N[C@@H](CCC(=O)N[C@@H](CS)C(=O)NCC(=O)O)C(=O)O` [Glu, glutathione], with “milder color stabilizing effect”.
On to `O=C(O)CCCCC1CCSS1` (stereo not shown) [LipA, lipoic acid], for which, in series [1], the “capacity of color mitigation” value was “milder color stabilizing effect”.
Consider `OCC(O)CS` (stereo not shown) [MTG, monothioglycerol], for which the “capacity of color mitigation” value in series [1] was “stronger capacity of color mitigation”. In addition, where the note is “BA/OA solution”, the “benzyl aldehyde formation promoted by thiolated antioxidant” value is “positive benzyl aldehyde formation”. Besides, where the note is “thiolated antioxidant containing BA/OA solution”, the “benzyl aldehyde formation with addition of VC” value is recorded as “inhibition effect of benzyl aldehyde”.
For `O=C([O-])CS.[Na+]` [STG, sodium thioglycolate], the “capacity of color mitigation” value in series [1] was “stronger capacity of color mitigation”.
In the case of `O=C(O)CS` [TGA, thioglycolic acid], in series [1], the “capacity of color mitigation” value is recorded as “stronger capacity of color mitigation”.
Regarding `CO[C@]12CC[C@@]3(C[C@@H]1[C@](C)(O)C(C)(C)C)[C@H]1Cc4ccc(O)c5c4[C@@]3(CCN1CC1CC1)[C@H]2O5` [buprenorphine, (25)-2-[(−)-(5R,6R,7R,14S)-9a-cyclo-propyl-methyl-4,5-epoxy-6,14-ethano-3-hydroxy-6-methoxymorphinan-7-yl]-3,3-di-methylbutan-2-ol], the Solubility of buprenorphine in series [2] (BA/OA vehicle, OA wt % 0, room temperature) stood at 21.2%; in series [2] (BA/OA vehicle, OA wt % 5, room temperature) it was 22.5%; in series [2] (BA/OA vehicle, OA wt % 10, room temperature), 25.4%; in series [2] (BA/OA vehicle, OA wt % 15, room temperature) it was 30.7%*; in series [2] (BA/OA vehicle, OA wt % 18, room temperature) it was 30.8%*; in series [2] (BA/OA vehicle, OA wt % 30, room temperature) it was 33.1%*. For the same compound, the Solubility of buprenorphine in series [2] (BA/OA vehicle, OA wt % 40, room temperature) stood at 36.2%*; in series [2] (OA wt % 100, room temperature), 27.7%.
